Source: US5140014A (Abbott Laboratories, priority 1989, dated 1992)
Values after ≈ are worked out from the molar mass of the structure shown. Like-named read-outs stand apart in the source and are kept apart here.

Key:
Assay in all cases: in vitro antibacterial activity, agar dilution method (MIC)
Assay type in all cases: cell-based
[1] = system: Acinetobacter Sp; conditions: Acinetobacter, strain CMX 669; BHI agar, 20-24 hours; read-out: MIC
Description: (§1) The test medium was Brain Heart Infusion (BHI) agar. The antibacterial agent was dissolved at a concentration of 2,000 ug/mL. Test plates were then prepared, usually 12 two-fold dilutions. After adding the sample to the plates, 10 mL of cooled BHI agar medium was added to each plate. The organisms were grown overnight in BHI broth (Difco) in a 35°-37° C. incubator.
(§2) On the day of testing, the bacterial suspensions were diluted 1:100 in sterile distilled water, except for a few slow-growing organisms (usually Micrococcus and Streptococcus) which were diluted 1:10. The plate was then inoculated with approximately 10^4 organisms. This was incubated in a 35°-37° C. incubator for 20-24 hours. Thereafter, the plates were read to determine the minimum inhibitory concentration (MIC) defined as the lowest concentration of drug yielding no growth on the plate, a slight haze, or sparsely isolated colonies on the inoculum spot as compared to the growth control.

[2] = system: Enterobacter Aerogenes; conditions: Klebsiella aerogenes, ATCC13048, strain ATCC 13048; BHI agar, 20-24 hours; read-out: MIC
Description: as §1, §2

[3] = system: Enterococcus Faecium; conditions: Enterococcus faecium, ATCC8043, strain ATCC 8043; BHI agar, 20-24 hours; read-out: MIC
Description: as §1, §2

[4] = system: Haemophilus Influenzae; conditions: Haemophilus influenzae, BHI agar, 20-24 hours
Description: as §1, §2

[5] = system: Klebsiella Pneumoniae; conditions: Klebsiella pneumoniae, ATCC8045, strain ATCC 8045; BHI agar, 20-24 hours; read-out: MIC
Description: as §1, §2

[6] = system: Micrococcus Luteus; conditions: Micrococcus luteus, BHI agar, 20-24 hours, read-out: MIC
Description: as §1, §2

[7] = system: Providencia Stuartii; conditions: Providencia stuartii; strain CMX 640; BHI agar, 20-24 hours; read-out: MIC
Description: as §1, §2

[8] = system: Pseudomonas Aeruginosa; conditions: Pseudomonas aeruginosa, BHI agar, 20-24 hours, read-out: MIC
Description: as §1, §2

[9] = system: Staphylococcus Aureus; conditions: Staphylococcus aureus, BHI agar, 20-24 hours, read-out: MIC
Description: as §1, §2

[10] = system: Staphylococcus Epidermidis; conditions: Staphylococcus epidermidis, strain 3519; BHI agar, 20-24 hours; read-out: MIC
Description: as §1, §2

[11] = system: Streptococcus Agalactiae; conditions: Streptococcus agalactiae
Description: as §1, §2

[12] = system: Streptococcus Bovis; conditions: Streptococcus equinus
Description: as §1, §2

[13] = system: Streptococcus Pyogenes; conditions: Streptococcus pyogenes
Description: as §1, §2

[14] = system: Escherichia Coli; conditions: Escherichia coli, BHI agar, 20-24 hours, read-out: MIC
Description: (§3) Compounds 1 to 8 were evaluated for antibacterial activity by the agar dilution method to determine the degree of in vitro susceptibility of aerobic microorganisms to antimicrobial agents. The test medium was Brain Heart Infusion (BHI) agar. The antibacterial agent was dissolved at a concentration of 2,000 ug/mL. Test plates were then prepared, usually 12 two-fold dilutions. After adding the sample to the plates, 10 mL of cooled BHI agar medium was added to each plate. The organisms were grown overnight in BHI broth (Difco) in a 35°-37° C. incubator.
as §2

[15] = system: Pseudomonas Cepacia; conditions: Burkholderia cepacia; strain 296I; BHI agar, 20-24 hours; read-out: MIC
Description: as §3, §2

[16] = ATCC9795, strain ATCC 9795, read-out: MIC
[17] = strain 930 CONST, BHI agar, 20-24 hours, read-out: MIC
[18] = strain 2548 INDUC, BHI agar, 20-24 hours, read-out: MIC

CCC1OC(=O)CC(O)C(C)C(OC2OC(C)C(O)C(N(C)C)C2O)C(CC=O)CC(C)C(N(C)C)C=CC(C)=CC1COC(C)=O (stereo not shown) [Example 4, [9R]-23-O-Acetyl-9-deoxo-9-N,N-dimethylamino-5-O-mycaminosyl-tylonide]
MIC [1]: 6.2 µg/mL (≈ 9.27 µM)
MIC [2]: 100 µg/mL (≈ 150 µM)
MIC [3]: 0.39 µg/mL (≈ 0.583 µM)
MIC [4, 16]: 1 µg/mL (≈ 1.5 µM)
MIC ([4]; ATCC10211, strain ATCC 10211): 2 µg/mL (≈ 2.99 µM)
MIC ([4]; ATCC19418, strain ATCC 19418): 2 µg/mL (≈ 2.99 µM)
MIC ([4]; ATCC43095, strain ATCC 43095): 2 µg/mL (≈ 2.99 µM)
MIC ([4]; strain 503B): 2 µg/mL (≈ 2.99 µM)
MIC ([4]; strain 504, read-out: MIC): 0.25 µg/mL (≈ 0.374 µM)
MIC ([4]; strain 519A, read-out: MIC): 1 µg/mL (≈ 1.5 µM)
MIC ([4]; strain 566A, read-out: MIC): 1 µg/mL (≈ 1.5 µM)
MIC ([4]; strain 588A): 2 µg/mL (≈ 2.99 µM)
MIC ([4]; strain 747C): 2 µg/mL (≈ 2.99 µM)
MIC ([4]; strain 751, read-out: MIC): 8 µg/mL (≈ 12 µM)
MIC ([4]; strain 1177, read-out: MIC): 0.25 µg/mL (≈ 0.374 µM)
MIC ([4]; strain 1435, read-out: MIC): 1 µg/mL (≈ 1.5 µM)
MIC ([4]; strain DILL AMP R): 2 µg/mL (≈ 2.99 µM)
MIC ([4]; strain SOL AMP R): 2 µg/mL (≈ 2.99 µM)
MIC ([4]; strain SPK AMP R): 2 µg/mL (≈ 2.99 µM)
MIC [5]: 50 µg/mL (≈ 74.8 µM)
MIC ([6]; ATCC4698, strain ATCC 4698): 0.39 µg/mL (≈ 0.583 µM)
MIC ([6]; ATCC9341, strain ATCC 9341): 0.2 µg/mL (≈ 0.299 µM)
MIC [7]: > 100 µg/mL
MIC ([8]; strain A5007): 100 µg/mL (≈ 150 µM)
MIC ([8]; strain BMH10): 100 µg/mL (≈ 150 µM)
MIC ([8]; strain K799/61): 3.1 µg/mL (≈ 4.63 µM)
MIC ([8]; strain K799/WT): 100 µg/mL (≈ 150 µM)
MIC ([9]; ATCC6538P, strain ATCC 6538P): 0.78 µg/mL (≈ 1.17 µM)
MIC ([9]; NCTC10649, strain NCTC 10649): 0.78 µg/mL (≈ 1.17 µM)
MIC ([9]; strain 45): 0.78 µg/mL (≈ 1.17 µM)
MIC ([9]; strain 45 RAR2): 1.56 µg/mL (≈ 2.33 µM)
MIC ([9]; strain 642A): 1.56 µg/mL (≈ 2.33 µM)
MIC ([9]; strain A5177): 0.78 µg/mL (≈ 1.17 µM)
MIC ([9]; strain CMX 553): 1.56 µg/mL (≈ 2.33 µM)
MIC [10]: 0.78 µg/mL (≈ 1.17 µM)
MIC ([11]; strain CMX 508, BHI agar, 20-24 hours, read-out: MIC): 0.1 µg/mL (≈ 0.15 µM)
MIC [12]: ≤ 0.02 µg/mL
MIC [13, 17]: > 100 µg/mL
MIC [13, 18]: 0.78 µg/mL (≈ 1.17 µM)
MIC ([13]; strain EES61, BHI agar, 20-24 hours, read-out: MIC): 0.1 µg/mL (≈ 0.15 µM)
MIC ([14]; strain DC-2): 25 µg/mL (≈ 37.4 µM)
MIC ([14]; strain H560): 12.5 µg/mL (≈ 18.7 µM)
MIC ([14]; strain JUHL): 50 µg/mL (≈ 74.8 µM)
MIC ([14]; strain KNK 437): 50 µg/mL (≈ 74.8 µM)
MIC ([14]; strain SS): 0.78 µg/mL (≈ 1.17 µM)
MIC [15]: > 100 µg/mL

CCC1OC(=O)CC(O)C(C)C(OC2OC(C)CC(N(C)C)C2O)C(CC=O)CC(C)C(N(C)C)C=CC(C)=CC1COC(C)=O (stereo not shown) [Example 5, [9R]-23-O-Acetyl-9-deoxo-4'-deoxy-9-N,N-dimethylamino-5-O-mycaminosyl-tylonide]
MIC [1]: 3.1 µg/mL (≈ 4.75 µM)
MIC [2]: 50 µg/mL (≈ 76.6 µM)
MIC [3]: 0.1 µg/mL (≈ 0.153 µM)
MIC [4, 16]: 2 µg/mL (≈ 3.06 µM)
MIC ([4]; ATCC10211, strain ATCC 10211, read-out: MIC): 2 µg/mL (≈ 3.06 µM)
MIC ([4]; ATCC19418, strain ATCC 19418, read-out: MIC): 2 µg/mL (≈ 3.06 µM)
MIC ([4]; ATCC43095, strain ATCC 43095, read-out: MIC): 2 µg/mL (≈ 3.06 µM)
MIC ([4]; strain 503B, read-out: MIC): 2 µg/mL (≈ 3.06 µM)
MIC ([4]; strain 504, read-out: MIC): 1 µg/mL (≈ 1.53 µM)
MIC ([4]; strain 519A, read-out: MIC): 1 µg/mL (≈ 1.53 µM)
MIC ([4]; strain 566A, read-out: MIC): 4 µg/mL (≈ 6.13 µM)
MIC ([4]; strain 588A, read-out: MIC): 2 µg/mL (≈ 3.06 µM)
MIC ([4]; strain 632A, read-out: MIC): 2 µg/mL (≈ 3.06 µM)
MIC ([4]; strain 667A, read-out: MIC): 2 µg/mL (≈ 3.06 µM)
MIC ([4]; strain 747C, read-out: MIC): 2 µg/mL (≈ 3.06 µM)
MIC ([4]; strain 751, read-out: MIC): 4 µg/mL (≈ 6.13 µM)
MIC ([4]; strain 1177, read-out: MIC): 0.12 µg/mL (≈ 0.184 µM)
MIC ([4]; strain 1435, read-out: MIC): 1 µg/mL (≈ 1.53 µM)
MIC ([4]; strain DILL AMP R, read-out: MIC): 2 µg/mL (≈ 3.06 µM)
MIC ([4]; strain SOL AMP R, read-out: MIC): 2 µg/mL (≈ 3.06 µM)
MIC ([4]; strain SPK AMP R, read-out: MIC): 2 µg/mL (≈ 3.06 µM)
MIC [5]: 25 µg/mL (≈ 38.3 µM)
MIC ([6]; ATCC4698, strain ATCC 4698): 0.1 µg/mL (≈ 0.153 µM)
MIC ([6]; ATCC9341, strain ATCC 9341): 0.1 µg/mL (≈ 0.153 µM)
MIC [7]: > 100 µg/mL
MIC ([8]; strain A5007): > 100 µg/mL
MIC ([8]; strain BMH10): 100 µg/mL (≈ 153 µM)
MIC ([8]; strain K799/61): 1.56 µg/mL (≈ 2.39 µM)
MIC ([8]; strain K799/WT): > 100 µg/mL
MIC ([9]; ATCC6538P, strain ATCC 6538P): 0.39 µg/mL (≈ 0.597 µM)
MIC ([9]; NCTC10649, strain NCTC 10649): 0.39 µg/mL (≈ 0.597 µM)
MIC ([9]; strain 45): 0.39 µg/mL (≈ 0.597 µM)
MIC ([9]; strain 45 RAR2): 0.78 µg/mL (≈ 1.19 µM)
MIC ([9]; strain 642A): 0.78 µg/mL (≈ 1.19 µM)
MIC ([9]; strain A5177): 0.39 µg/mL (≈ 0.597 µM)
MIC ([9]; strain CMX 553): 0.78 µg/mL (≈ 1.19 µM)
MIC [10]: 0.39 µg/mL (≈ 0.597 µM)
MIC [11]: 0.05 µg/mL (≈ 0.0766 µM)
MIC ([12]; strain A5169, BHI agar, 20-24 hours): 0.05 µg/mL (≈ 0.0766 µM)
MIC [13]: 0.05 µg/mL (≈ 0.0766 µM)
MIC [13, 17]: 50 µg/mL (≈ 76.6 µM)
MIC [13, 18]: 0.2 µg/mL (≈ 0.306 µM)
MIC ([14]; strain DC-2): 6.2 µg/mL (≈ 9.5 µM)
MIC ([14]; strain H560): 3.1 µg/mL (≈ 4.75 µM)
MIC ([14]; strain JUHL): 12.5 µg/mL (≈ 19.1 µM)
MIC ([14]; strain KNK 437): 12.5 µg/mL (≈ 19.1 µM)
MIC ([14]; strain SS): 0.2 µg/mL (≈ 0.306 µM)
MIC [15]: > 100 µg/mL
